Laboratory results from patent publication US12516038B2, “Inhibitors of antigen presentation by HLA-DR” (Janssen Pharmaceutica NV, priority 2020, dated 2026).

How the values were obtained:
HLA-DRB1*0401 = HLA-DRB1*0401 (Homo sapiens (Human), UniProt P01903+P01911, A100K/A169T/DEL228-266/F76Y/I96L/K127E/L162R/M171V/N62H/P40V/Q125Y/R42H/S133A/S149N/S66Y/V115G/V209L/W38E); test: HLA-DR4 HTRF assay; type: binding; details: inhibition of loading of Alexa Fluor 647-labeled Cit-CII peptide onto HLA-DR4 (CLIP cleaved)
Method in brief: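 HLA-DRB1*04:01 construct (α/β fused to human Fc, CLIP pre-cleaved by HRV3C overnight at 4° C) at 3 nM was preincubated 45 min with compound and 1 nM anti-Fc-Tb donor, then 40 nM Alexa647-Cit-CII1236-1249 peptide added. After 90 min at 37° C, the 665/620 nm HTRF ratio gave % inhibition; IC50 by nonlinear regression.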

[1] = tested on: HLA-DR4 restricted mouse T cell hybridoma line (DR4.CII.36.8) with HLA-DRB1*04:01-expressing Boleth cells; test: HLA-DR4-restricted peptide-specific T cell-based assay (hybridoma assay); details: 6 h, inhibition of IL-2 production, CII259-273 peptide presented by Boleth cells
Method in brief: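 IC50 values derive from 4-parameter logistic fits of IL-2 AlphaLISA signal over 8-point duplicate titrations. Compound and HLA-DRB1*04:01 Boleth APCs were preincubated 1 h, 37° C., before adding CII259-273-restricted DR4.CII.36.8 hybridoma cells with peptide for 6 h at 37° C., in DMEM/1% FCS.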

[2] = tested on: human peripheral blood CD4+ helper T cells; test: Pan-CD4+ T cell activation (off-target assay); type: cell-based; details: Homo sapiens, T-cell, 24 h, anti-CD3/anti-CD28 stimulation, IL-2 production by ELISA
From the text: The counter-screening was made through an HLA-DR-independent assay (Pan-CD4+ T cell activation assay), i.e., TCR-stimulated pan-T cell activation assay, and consists of activating T cell directly with agonistic antibody targeting the T cell receptor. The lack of inhibition in the counter-screening assay reflects that the inhibition of T cell activation in the HLA-DR4 restricted peptide-specific T cell based assay with the small molecule inhibitors is due to impaired antigen presentation on HLA-DR to the T cell and not due to a direct inhibition of the T cell function by an off-target mechanism (i.e., independently of targeting HLA-DR).
Pan-CD4+ T Cell Activation
Compounds were tested using a pan-T cell activation assay. In this assay, anti-human CD3 antibody (BD Pharmingen #55336) pre-coated at 1 μg/mL to a 96-well assay plate and 1 μg/ml soluble anti-human CD28 (EBioscience #16-0289-85) antibody were used for activating human peripheral blood CD4+ helper T cells (no HLA-DR-expressing APC were present in this assay format), in the presence of compounds (or vehicle control) for 24 hrs. IL-2 production was measured in the culture supernatant by ELISA (Human IL-2 Duo Set ELISA #DY202 from R&D Systems).

SMILES | IC50 (HLA-DRB1*0401) [nM] | IC50 ([1]; Mus musculus, T-cell) [nM] | IC50 [2] [nM] | IC50 [1] [nM]
O=C1CCOc2cc(OC(c3ccncc3)c3cccc(F)c3)ccc21 (racemic) [Example 2, (R,S)-7-((3-Fluorophenyl)(pyridin-4-yl)methoxy)chroman-4-one] | 1000 | 2800 | > 15000 | –
O=C1CCOc2cc(OC(c3ccncc3)c3ccc(F)cc3)ccc21 (racemic) [Example 3, (R,S)-7-((4-Fluorophenyl)(pyridin-4-yl)methoxy)chroman-4-one] | 990 | 3700 | > 15000 | –
NC(=O)c1ccc(C(Oc2ccc3c(c2)OCCC3=O)c2ccncc2)cc1 (racemic) [Example 11, (R,S)-4-(((4-Oxochroman-7-yl)oxy)(pyridin-4-yl)methyl)benzamide] | 650 | 1200 | > 15000 | –
COc1ccc(C(Oc2ccc3c(c2)OCCC3=O)c2ccncc2)cc1 (racemic) [Example 12, (R,S)-7-((4-Methoxyphenyl)(pyridin-4-yl)methoxy)chroman-4-one] | 1200 | 1600 | > 15000 | –
COc1ccccc1C(Oc1ccc2c(c1)OCCC2=O)c1ccncc1 (racemic) [Example 14, 7-((2-Methoxyphenyl)(pyridin-4-yl)methoxy)chroman-4-one] | 2400 | 5000 | > 15000 | –
O=C1CCOc2cc(OC(c3ccccc3)c3ccncc3)ccc21 (racemic) [Example 114, (R,S)-7-(Phenyl(pyridin-4-yl)methoxy)chroman-4-one] | 3400 | 11000 | > 10000 | –
CC(C)c1c(O[C@H](c2ccc(C(N)=O)cc2)c2cccc(C#N)c2)ccc2c1OCCC2=O (single isomer, unassigned) [Example 107a, (*R)-4-((3-cyanophenyl)((8-isopropyl-4-oxochroman-7-yl)oxy)methyl)benzamide] | 940 | 10000 | – | –
CC(C)c1c(O[C@@H](c2ccc(C(N)=O)cc2)c2cccc(C#N)c2)ccc2c1OCCC2=O (single isomer, unassigned) [Example 107b, (*S)-4-((3-cyanophenyl)((8-isopropyl-4-oxochroman-7-yl)oxy)methyl)benzamide] | 1100 | 2300 | – | –
CC(C)c1c(O[C@H](c2ccc(C(N)=O)cc2)c2ccc(C(=O)O)cc2)ccc2c1OCCC2=O (single isomer, unassigned) [Example 108a, (*R)-4-((4-carbamoylphenyl)((8-isopropyl-4-oxochroman-7-yl)oxy)methyl)benzoic acid] | 860 | > 15000 | – | –
CC(C)c1c(O[C@@H](c2ccc(C(N)=O)cc2)c2ccc(C(=O)O)cc2)ccc2c1OCCC2=O (single isomer, unassigned) [Example 108b, (*S)-4-((4-carbamoylphenyl)((8-isopropyl-4-oxochroman-7-yl)oxy)methyl)benzoic acid] | 820 | 2700 | – | –
Cc1cc([C@H](Oc2cc3c(cc2F)C(=O)CCO3)c2ccc(C(N)=O)cc2)cc(C)n1 (single isomer, unassigned) [Example 109a, (*R)-4-((2,6-dimethylpyridin-4-yl)((6-fluoro-4-oxochroman-7-yl)oxy)methyl)benzamide] | 210 | – | – | 1100
Cc1cc([C@@H](Oc2cc3c(cc2F)C(=O)CCO3)c2ccc(C(N)=O)cc2)cc(C)n1 (single isomer, unassigned) [Example 109b, (*S)-4-((2,6-dimethylpyridin-4-yl)((6-fluoro-4-oxochroman-7-yl)oxy)methyl)benzamide] | 230 | – | – | 12000
Cc1cc([C@H](Oc2ccc3c(c2C#N)OCCC3=O)c2ccc(C(N)=O)cc2)cc(C)n1 (single isomer, unassigned) [Example 110a, (*R)-4-(((8-cyano-4-oxochroman-7-yl)oxy)(2,6-dimethylpyridin-4-yl)methyl)benzamide] | 550 | 120 | – | –
Cc1cc([C@@H](Oc2ccc3c(c2C#N)OCCC3=O)c2ccc(C(N)=O)cc2)cc(C)n1 (single isomer, unassigned) [Example 110b, (*S)-4-(((8-cyano-4-oxochroman-7-yl)oxy)(2,6-dimethylpyridin-4-yl)methyl)benzamide] | 610 | 790 | – | –
Cc1cc([C@H](Oc2ccc3c(c2C)OCCC3=O)c2ccc(C(N)=O)cc2)cc(C)n1 (single isomer, unassigned) [Example 111a, (*R)-4-((2,6-dimethylpyridin-4-yl)((8-methyl-4-oxochroman-7-yl)oxy)methyl)benzamide] | 490 | 600 | – | –
Cc1cc([C@H](Oc2ccc3c(c2C)OC(C)(C)CC3=O)c2ccc(C(N)=O)cc2)cc(C)n1 (single isomer, unassigned) [Example 112a, (*R)-4-((2,6-dimethylpyridin-4-yl)((2,2,8-trimethyl-4-oxochroman-7-yl)oxy)methyl)benzamide] | 760 | 410 | – | –
Cc1cc([C@@H](Oc2ccc3c(c2C)OC(C)(C)CC3=O)c2ccc(C(N)=O)cc2)cc(C)n1 (single isomer, unassigned) [Example 112b, (*S)-4-((2,6-dimethylpyridin-4-yl)((2,2,8-trimethyl-4-oxochroman-7-yl)oxy)methyl)benzamide] | 600 | 4000 | – | –
CC[C@@H]1CC(=O)c2ccc(OCc3ccncc3OC)cc2O1 (single isomer, unassigned) [Example 119a, (*R)-2-ethyl-7-((3-methoxypyridin-4-yl)methoxy)chroman-4-one] | 540 | 13000 | – | –
CC[C@H]1CC(=O)c2ccc(OCc3ccncc3OC)cc2O1 (single isomer, unassigned) [Example 119b, (*S)-2-ethyl-7-((3-methoxypyridin-4-yl)methoxy)chroman-4-one] | 690 | > 15000 | – | –
Cc1c(O[C@@H]2CCc3cc(C(N)=O)ccc32)ccc2c1OCCC2=O (single isomer, unassigned) [Example 121a, (*R)-1-((8-methyl-4-oxochroman-7-yl)oxy)-2,3-dihydro-1H-indene-5-carboxamide] | 930 | > 15000 | – | –
Cc1c(O[C@@H]2CCCc3cc(C#N)ccc32)ccc2c1OCCC2=O (single isomer, unassigned) [Example 122a, (*R)-5-((8-methyl-4-oxochroman-7-yl)oxy)-5,6,7,8-tetrahydronaphthalene-2-carbonitrile] | 540 | 6300 | – | –
Cc1c(O[C@H]2CCCc3cc(C#N)ccc32)ccc2c1OCCC2=O (single isomer, unassigned) [Example 122b, (*S)-5-((8-methyl-4-oxochroman-7-yl)oxy)-5,6,7,8-tetrahydronaphthalene-2-carbonitrile] | 930 | 15000 | – | –
Cc1c(O[C@@H]2CCCc3cc(C(N)=O)ccc32)ccc2c1OCCC2=O (single isomer, unassigned) [Example 123a, (*R)-5-((8-methyl-4-oxochroman-7-yl)oxy)-5,6,7,8-tetrahydronaphthalene-2-carboxamide] | 630 | 7900 | – | –
Cc1c(O[C@H]2CCCc3cc(C(N)=O)ccc32)ccc2c1OCCC2=O (single isomer, unassigned) [Example 123b, (*S)-5-((8-methyl-4-oxochroman-7-yl)oxy)-5,6,7,8-tetrahydronaphthalene-2-carboxamide] | 570 | 6300 | – | –
Cc1c(O[C@@H]2CCc3cnccc32)ccc2c1OCCC2=O (single isomer, unassigned) [Example 124a, (*R)-7-((6,7-dihydro-5H-cyclopenta[c]pyridin-5-yl)oxy)-8-methylchroman-4-one] | 570 | 14000 | – | –
Cc1c(O[C@H]2CCc3cnccc32)ccc2c1OCCC2=O (single isomer, unassigned) [Example 124b, (*S)-7-((6,7-dihydro-5H-cyclopenta[c]pyridin-5-yl)oxy)-8-methylchroman-4-one] | 740 | 6000 | – | –
Cc1cc(COc2ccc3c(c2C(C)C)OCCC3=O)cc(C)n1 [Example 117, 7-((2,6-Dimethylpyridin-4-yl)methoxy)-8-isopropylchroman-4-one] | 680 | 3100 | – | –
